From paper PMC11603058 (Scientific Reports, 2024)
Peptide text beside a SMILES is read from it. * marks the point of attachment. Cbz = O=C(OCc1ccccc1)*; CH2F = FC*

Columns and labels:
MIA PaCa-2 cells [1] = test: Viability of AJO14-treated cells in presence of cell death inhibitors; format: cell-based, human; details: MIA PaCa-2, 24 h; Z-VAD-FMK (20 µM), Nec-1 (40 µM), or Olaparib (25 μM)
MIA PaCa-2 cells [2] = test: Oxygen consumption rate, Seahorse XF; format: cell-based, human; details: MIA PaCa-2, 24 h, AJO14 (10 μM) with increasing concentrations of Olaparib
hERG channel = hERG channel (Homo sapiens, UniProt Q12809); test: Predictor hERG Fluorescence Polarization assay; format: binding; details: read-out: hERG channel inhibition (IC50), 0.1-80 μM
Sequence of hERG channel (Q12809 whole entry): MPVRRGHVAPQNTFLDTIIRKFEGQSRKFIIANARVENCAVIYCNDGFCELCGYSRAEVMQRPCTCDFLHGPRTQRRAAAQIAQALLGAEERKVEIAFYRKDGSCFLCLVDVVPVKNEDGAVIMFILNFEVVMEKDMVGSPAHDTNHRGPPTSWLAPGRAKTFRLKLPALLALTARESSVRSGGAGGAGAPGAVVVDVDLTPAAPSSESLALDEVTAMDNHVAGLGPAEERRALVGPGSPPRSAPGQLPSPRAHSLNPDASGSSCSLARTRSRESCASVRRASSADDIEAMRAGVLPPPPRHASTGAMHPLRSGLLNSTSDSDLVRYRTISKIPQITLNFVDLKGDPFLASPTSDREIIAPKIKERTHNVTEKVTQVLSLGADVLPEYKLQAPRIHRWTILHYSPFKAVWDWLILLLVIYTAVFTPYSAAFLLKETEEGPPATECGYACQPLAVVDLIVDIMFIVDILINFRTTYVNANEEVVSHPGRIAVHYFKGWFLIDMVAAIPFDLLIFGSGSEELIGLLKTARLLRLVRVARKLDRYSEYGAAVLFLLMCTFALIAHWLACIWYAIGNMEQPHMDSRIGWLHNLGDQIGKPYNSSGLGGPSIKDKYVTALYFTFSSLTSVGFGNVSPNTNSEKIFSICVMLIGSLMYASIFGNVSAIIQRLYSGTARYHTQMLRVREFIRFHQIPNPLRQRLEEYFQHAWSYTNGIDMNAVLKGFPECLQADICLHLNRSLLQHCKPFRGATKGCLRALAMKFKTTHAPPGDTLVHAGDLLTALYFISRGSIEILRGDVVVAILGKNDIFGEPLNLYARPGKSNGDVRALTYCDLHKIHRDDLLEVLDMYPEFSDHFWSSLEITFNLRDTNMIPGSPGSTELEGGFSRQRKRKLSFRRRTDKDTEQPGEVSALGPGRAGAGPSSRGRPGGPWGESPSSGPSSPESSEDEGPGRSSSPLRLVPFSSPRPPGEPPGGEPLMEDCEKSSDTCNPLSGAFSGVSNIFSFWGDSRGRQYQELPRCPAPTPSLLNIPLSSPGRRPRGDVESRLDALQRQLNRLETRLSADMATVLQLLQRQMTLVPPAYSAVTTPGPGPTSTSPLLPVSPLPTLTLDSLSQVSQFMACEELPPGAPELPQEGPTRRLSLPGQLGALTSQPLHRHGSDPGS

| Structure (SMILES) | effect of pretreatment on cell viability of cells treated with AJO14 (MIA PaCa-2 cells [1]) | effect on mitochondrial metabolism failure (OCR) caused by AJO14 (MIA PaCa-2 cells [2]) | IC50 (hERG channel) |
| --- | --- | --- | --- |
| COC(=O)C[C@H](NC(=O)[C@H](C)NC(=O)[C@@H](NC(=O)OCc1ccccc1)C(C)C)C(=O)CF [Z-VAD-FMK] (Cbz-Val-Ala-Asp(OMe)-CH2F) | partially improved the cell viability | – | – |
| O=C(c1cc(Cc2n[nH]c(=O)c3ccccc23)ccc1F)N1CCN(C(=O)C2CC2)CC1 [Olaparib] | partially improved the cell viability | could reverse the strong mitochondrial metabolism failure caused by AJO14 | – |
| CN(C)CCN1CCN(CCCN2c3ccccc3Sc3ccc(C(F)(F)F)cc32)CC1 [ZZW-115] | – | – | 2 µM |
| CN1C(=O)C(Cc2c[nH]c3ccccc23)NC1=S (centres unmarked) [Necrostatin] | partially improved the cell viability | – | – |
